According to patent US7858776B2, “Lactams and uses thereof” (AstraZeneca AB, priority 2002, dated 2010):
Where a name gives a salt, the structure may show the parent alone.

SMILES | melting point
C[C@H](NCCc1ccccc1)C(=O)N[C@@H]1C(=O)Nc2ccccc2S[C@@H]1c1ccccc1 (as salt: hydrochloride) [Example 98, N^1-[(2R,3R)-4-Oxo-2-phenyl-2,3,4,5-tetrahydro-1,5-benzothiazepin-3-yl]-N^2-(2-Phenylethyl)-L-alaninamide] | 184 to 195 °C
C[C@H](NC(=O)Cc1cc(F)cc(F)c1)C(=O)N[C@@H]1C(=O)NCCS[C@@H]1c1ccccc1 [Example 7, N^2-[(3,5-Difluorophenyl)acetyl]-N^1-[(6R,7R)-5-oxo-7-phenyl-1,4-thiazepan-6-yl]-L-alaninamide] | 128 to 133 °C
CC(C)C[C@H](O)C(=O)N[C@@H](C)C(=O)N[C@@H]1C(=O)NCCS[C@@H]1c1ccccc1 [Example 93, N^2-[(2S)-2-Hydroxy-4-methyl-1-oxopentyl]-N^1-[(6R,7R)-5-oxo-7-phenyl-1,4-thiazepan-6-yl]-L-alaninamide] | 93 to 99 °C
C[C@H](NC(=O)Cc1ccccc1)C(=O)N[C@@H]1C(=O)Nc2ccccc2S[C@@H]1c1ccccc1 [Example 97, N^1-[(2R,3R)-4-Oxo-2-phenyl-2,3,4,5-tetrahydro-1,5-benzothiazepin-3-yl]-N^2-(phenylacetyl)-L-alaninamide] | 114 to 124 °C
C[C@H](NC(=O)Cc1cc(F)cc(F)c1)C(=O)N[C@@H]1C(=O)Nc2ccccc2S[C@@H]1c1cccs1 [Example 99, N^2-[(3,5-Difluorophenyl)acetyl]-N^1-[(2S,3R)-4-oxo-2-(2-thienyl)-2,3,4,5-tetrahydro-1,5-benzothiazepin-3-yl]-L-alaninamide] | 117 to 119 °C
C[C@H](NC(=O)Cc1cc(F)cc(F)c1)C(=O)N[C@@H]1C(=O)Nc2ccccc2S[C@@H]1c1ccco1 [Example 101, N^2-[(3,5-Difluorophenyl)acetyl]-N^1-[(2S,3R)-2-(2-furyl)-4-oxo-2,3,4,5-tetrahydro-1,5-benzothiazepin-3-yl]-L-alaninamide] | 125 to 130 °C
C[C@H](NC(=O)Cc1cc(F)cc(F)c1)C(=O)N[C@@H]1C(=O)Nc2ccccc2S[C@H]1c1ccoc1 [Example 102, N^2-[(3,5-Difluorophenyl)acetyl]-N^1-[(2S,3R)-2-(3-furyl)-4-oxo-2,3,4,5-tetrahydro-1,5-benzothiazepin-3-yl]-L-alaninamide] | 115 to 120 °C
C[C@H](NC(=O)Cc1cc(F)cc(F)c1)C(=O)N[C@@H]1C(=O)Nc2ccccc2S[C@@H]1c1cc(Br)cs1 [Example 104, N^1-[(2S,3R)-2-(4-Bromo-2-thienyl)-4-oxo-2,3,4,5-tetrahydro-1,5-benzothiazepin-3-yl]-N^2-[(3,5-difluorophenyl)acetyl]-L-alaninamide] | 145 to 155 °C
N[C@@H](Cc1ccccc1)C(=O)N(C(=O)Cc1cc(F)cc(F)c1)[C@@H]1C(=O)Nc2ccccc2S[C@@H]1c1ccccc1 [Example 105, N-[(3,5-Difluorophenyl)acetyl]-N-[(2R,3R)-4-oxo-2-phenyl-2,3,4,5-tetrahydro-1,5-benzothiazepin-3-yl]-L-phenylalaninamide] | 115 to 120 °C
O=C(Cc1cc(F)cc(F)c1)NCC(=O)N[C@@H]1C(=O)Nc2ccccc2S[C@@H]1c1ccccc1 [Example 106, N^2-[(3,5-Difluorophenyl)acetyl]-N^1-[(2R,3R)-4-oxo-2-phenyl-2,3,4,5-tetrahydro-1,5-benzothiazepin-3-yl]glycinamide] | 125 to 130 °C
CC(C)[C@H](NC(=O)Cc1cc(F)cc(F)c1)C(=O)N[C@@H]1C(=O)Nc2ccccc2S[C@@H]1c1ccccc1 [Example 107, N^2-[(3,5-Difluorophenyl)acetyl]-N^1-[(2R,3R)-4-oxo-2-phenyl-2,3,4,5-tetrahydro-1,5-benzothiazepin-3-yl]-L-valinamide] | 110 to 115 °C
CSCC[C@H](NC(=O)Cc1cc(F)cc(F)c1)C(=O)N[C@@H]1C(=O)Nc2ccccc2S[C@@H]1c1ccccc1 [Example 109, N^2-[(3,5-Difluorophenyl)acetyl]N^1-[(2R,3R)-4-oxo-2-phenyl-2,3,4,5-tetrahydro-1,5-benzothiazepin-3-yl]-L-methioninamide] | 85 to 90 °C
O=C(Cc1cc(F)cc(F)c1)N[C@@H](Cc1cc2ccccc2[nH]1)C(=O)N[C@@H]1C(=O)Nc2ccccc2S[C@@H]1c1ccccc1 [Example 110, N^2-[(3,5-Difluorophenyl)acetyl]-3-(1H-indol-2-yl)-N^1-[(2R,3R)-4-oxo-2-phenyl-2,3,4,5-tetrahydro-1,5-benzothiazepin-3-yl]-L-alaninamide] | 85 to 90 °C
C[C@H](NC(=O)Cc1ccccc1)C(=O)N[C@@H]1C(=O)Nc2ccccc2O[C@@H]1c1ccccc1 [Example 113, N^1-[(2R,3S)-4-Oxo-2-phenyl-2,3,4,5-tetrahydro-1,5-benzoxazepin-3-yl]-N^2-(phenylacetyl)-L-alaninamide] | 122 to 136 °C
C[C@H](NC(=O)Cc1ccccc1F)C(=O)N[C@@H]1C(=O)Nc2ccccc2O[C@@H]1c1ccccc1 [Example 114, N^2-[(2-Fluorophenyl)acetyl]-N^1-[(2R,3S)-4-oxo-2-phenyl-2,3,4,5-tetrahydro-1,5-benzoxazepin-3-yl]-L-alaninamide] | 115 to 135 °C
C[C@H](NC(=O)Cc1cccc(F)c1)C(=O)N[C@@H]1C(=O)Nc2ccccc2O[C@@H]1c1ccccc1 [Example 115, N^2-[(3-Fluorophenyl)acetyl]-N^1-[(2R,3S)-4-oxo-2-phenyl-2,3,4,5-tetrahydro-1,5-benzoxazepin-3-yl]-L-alaninamide] | 130 to 140 °C
C[C@H](NC(=O)Cc1ccc(F)cc1)C(=O)N[C@@H]1C(=O)Nc2ccccc2O[C@@H]1c1ccccc1 [Example 116, N^2-[(4-Fluorophenyl)acetyl]-N^1-[(2R,3S)-4-oxo-2-phenyl-2,3,4,5-tetrahydro-1,5-benzoxazepin-3-yl]-L-alaninamide] | 130 to 140 °C
